Measured values: PubChem BioAssay AID248 (DTP/NCI, 2004)
Values joined by “and” are separate entries in the source; they are usually repeats but may differ in a detail not shown here. Identical values can stand only once. Toxic doses and inconclusive results are not listed. Rule as the data show it: active = T/C of 150% or more; inactive = T/C below 125%.

Test system: L1210 leukemia ip in BDF1 mice, survival T/C
Experiment: NCI In Vivo Anticancer Drug Screen. Data for tumor model L1210 Leukemia (intraperitoneal) in B6D2F1 (BDF1) mice
Details: endpoint: mean survival time, higher = longer survival
In short: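 Transplantable tumor model; survival measured in treated vs vehicle control mice. Value = treated/control.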

[1] = dose: 100.0 mg/kg/injection, schedule: Q01DX001 (ip), vehicle: carboxymethylcellulose (CMC)
[2] = dose: 200.0 mg/kg/injection, schedule: Q01DX001 (ip), vehicle: carboxymethylcellulose (CMC)
[3] = dose: 400.0 mg/kg/injection, schedule: Q01DX001 (ip), vehicle: carboxymethylcellulose (CMC)
[4] = dose: 100.0 mg/kg/injection, schedule: Q01DX009 (ip), vehicle: Klucel (hydroxypropylcellulose) (HPC)
[5] = dose: 200.0 mg/kg/injection, schedule: Q01DX009 (ip), vehicle: Klucel (hydroxypropylcellulose) (HPC)
[6] = dose: 400.0 mg/kg/injection, schedule: Q01DX009 (ip), vehicle: Klucel (hydroxypropylcellulose) (HPC)
[7] = dose: 100.0 mg/kg/injection, schedule: Q04DX002 (ip), vehicle: saline with Tween-80
[8] = dose: 200.0 mg/kg/injection, schedule: Q04DX002 (ip), vehicle: saline with Tween-80
[9] = dose: 400.0 mg/kg/injection, schedule: Q04DX002 (ip), vehicle: saline with Tween-80
[10] = dose: 100.0 mg/kg/injection, schedule: Q04DX003 (ip), vehicle: Klucel (hydroxypropylcellulose) (HPC)
[11] = dose: 100.0 mg/kg/injection, schedule: Q01DX009 (ip), vehicle: saline with Tween-80
[12] = dose: 100.0 mg/kg/injection, schedule: Q04DX003 (ip), vehicle: saline with Tween-80
[13] = dose: 200.0 mg/kg/injection, schedule: Q01DX009 (ip), vehicle: saline with Tween-80
[14] = dose: 200.0 mg/kg/injection, schedule: Q04DX003 (ip), vehicle: saline with Tween-80
[15] = dose: 400.0 mg/kg/injection, schedule: Q01DX009 (ip), vehicle: saline with Tween-80
[16] = dose: 400.0 mg/kg/injection, schedule: Q04DX003 (ip), vehicle: saline with Tween-80

Measured: T/C

CSc1ccc(OC(=O)Nc2cccc(Cl)c2)cc1C
inactive: [1] 94 % of control | dose: 100.0 mg/kg/injection, schedule: Q01DX009 (ip), vehicle: carboxymethylcellulose (CMC) 98 % of control | dose: 100.0 mg/kg/injection, schedule: Q04DX002 (ip), vehicle: Klucel (hydroxypropylcellulose) (HPC) 101 % of control | dose: 100.0 mg/kg/injection, schedule: Q04DX002 (ip), vehicle: carboxymethylcellulose (CMC) 96 % of control and 101 % of control | dose: 100.0 mg/kg/injection, schedule: Q04DX003 (ip), vehicle: carboxymethylcellulose (CMC) 101 % of control | [2] 97 % of control | dose: 200.0 mg/kg/injection, schedule: Q01DX009 (ip), vehicle: carboxymethylcellulose (CMC) 100 % of control and 106 % of control | dose: 200.0 mg/kg/injection, schedule: Q04DX002 (ip), vehicle: Klucel (hydroxypropylcellulose) (HPC) 95 % of control | dose: 200.0 mg/kg/injection, schedule: Q04DX002 (ip), vehicle: carboxymethylcellulose (CMC) 95 % of control and 88 % of control | dose: 200.0 mg/kg/injection, schedule: Q04DX003 (ip), vehicle: carboxymethylcellulose (CMC) 94 % of control | [3] 87 % of control | dose: 400.0 mg/kg/injection, schedule: Q01DX009 (ip), vehicle: carboxymethylcellulose (CMC) 93 % of control and 87 % of control | dose: 400.0 mg/kg/injection, schedule: Q04DX002 (ip), vehicle: Klucel (hydroxypropylcellulose) (HPC) 108 % of control | dose: 400.0 mg/kg/injection, schedule: Q04DX002 (ip), vehicle: carboxymethylcellulose (CMC) 95 % of control and 103 % of control | dose: 400.0 mg/kg/injection, schedule: Q04DX003 (ip), vehicle: carboxymethylcellulose (CMC) 92 % of control

BrC1CCC(Br)C(Br)CCC1Br (stereo not given)
inactive: dose: 100.0 mg/kg/injection, schedule: Q01DX001 (ip), vehicle: Klucel (hydroxypropylcellulose) (HPC) 101 % of control | [4] 104 % of control | dose: 200.0 mg/kg/injection, schedule: Q01DX001 (ip), vehicle: Klucel (hydroxypropylcellulose) (HPC) 97 % of control | [5] 97 % of control | dose: 400.0 mg/kg/injection, schedule: Q01DX001 (ip), vehicle: Klucel (hydroxypropylcellulose) (HPC) 95 % of control | [6] 90 % of control

NC(=O)c1c(/N=C/c2ccccc2Cl)sc2c1CCCC2
inactive: [7] 91 % of control | [8] 87 % of control | [9] 91 % of control

O=C(CCl)Nc1ccc([As](=O)(O)O)cc1
inactive: dose: 25.0 mg/kg/injection, schedule: Q01DX009 (ip), vehicle: Klucel (hydroxypropylcellulose) (HPC) 98 % of control | dose: 50.0 mg/kg/injection, schedule: Q01DX009 (ip), vehicle: Klucel (hydroxypropylcellulose) (HPC) 91 % of control | dose: 50.0 mg/kg/injection, schedule: Q04DX003 (ip), vehicle: Klucel (hydroxypropylcellulose) (HPC) 94 % of control | [10] 97 % of control

O=C(Nc1ccc(C2=NCCN2)cc1)Nc1cc(NC(=O)Nc2ccc(C3=NCCN3)cc2)cc(C(=O)O)c1
inactive: dose: 120.0 mg/kg/injection, schedule: Q01DX Z (ip), vehicle: carboxymethylcellulose (CMC) 106 % of control | dose: 240.0 mg/kg/injection, schedule: Q01DX Z (ip), vehicle: carboxymethylcellulose (CMC) 102 % of control | dose: 250.0 mg/kg/injection, schedule: Q01DX Z (ip), vehicle: water 93 % of control | dose: 500.0 mg/kg/injection, schedule: Q01DX Z (ip), vehicle: water 94 % of control

CCCCC1(CCC)C(=O)NC(=O)NC1=O
inactive: dose: 75.0 mg/kg/injection, schedule: Q01DX001 (ip), vehicle: saline 102 % of control | dose: 150.0 mg/kg/injection, schedule: Q01DX001 (ip), vehicle: saline 96 % of control | dose: 300.0 mg/kg/injection, schedule: Q01DX001 (ip), vehicle: saline 95 % of control

COc1ccc(CCO)c(OC)c1
inactive: dose: 50.0 mg/kg/injection, schedule: Q01DX001 (ip), vehicle: carboxymethylcellulose (CMC) 98 % of control | [1] 100 % of control | [2] 96 % of control | [3] 88 % of control

CCNC1C2CCC(C2)C1c1ccccc1 (stereo not given)
inactive: dose: 3.12 mg/kg/injection, schedule: Q01DX009 (ip), vehicle: saline 94 % of control | dose: 6.25 mg/kg/injection, schedule: Q01DX009 (ip), vehicle: saline 94 % of control | dose: 12.5 mg/kg/injection, schedule: Q01DX009 (ip), vehicle: saline 89 % of control | dose: 25.0 mg/kg/injection, schedule: Q01DX009 (ip), vehicle: saline 93 % of control | dose: 25.0 mg/kg/injection, schedule: Q04DX003 (ip), vehicle: saline 89 % of control | dose: 50.0 mg/kg/injection, schedule: Q04DX003 (ip), vehicle: saline 94 % of control

CC(=O)CC(=O)C(F)(F)F.CC(=O)CC(=O)C(F)(F)F.CC(=O)CC(=O)C(F)(F)F.[Rh]
inactive: [11] 97 % of control | [12] 97 % of control | [13] 100 % of control | [14] 90 % of control | [15] 96 % of control | [16] 92 % of control

O=S(=O)(F)c1ccc(-c2cc(Cl)c3cc(F)ccc3n2)cc1
inactive: [10] 105 % of control | dose: 200.0 mg/kg/injection, schedule: Q04DX003 (ip), vehicle: Klucel (hydroxypropylcellulose) (HPC) 106 % of control | dose: 400.0 mg/kg/injection, schedule: Q04DX003 (ip), vehicle: Klucel (hydroxypropylcellulose) (HPC) 106 % of control

COc1cccc(NC(=O)c2cccc(C(=O)Nc3cccc(OC)c3)c2)c1
inactive: [4] 94 % of control | [5] 91 % of control | [6] 86 % of control

OC(c1cc(C(F)(F)F)nc2c(F)cccc12)C1CCCCN1 (stereo not given)
inactive: [12] 102 % of control | [14] 105 % of control | [16] 96 % of control

Oc1ccc(NC(=S)Nc2ccccc2)cc1
inactive: [11] 93 % of control | [13] 88 % of control | [15] 92 % of control

CCCCCCC(=O)N1C(C)CCC1C (stereo not given)
inactive: dose: 100.0 mg/kg/injection, schedule: Q04DX002 (ip), vehicle: saline 88 % of control | dose: 200.0 mg/kg/injection, schedule: Q04DX002 (ip), vehicle: saline 94 % of control | dose: 400.0 mg/kg/injection, schedule: Q04DX002 (ip), vehicle: saline 102 % of control

Cc1c(Cl)cccc1NC(=S)NC(=O)c1ccccc1
inactive: [7] 110 % of control | [8] 100 % of control | [9] 89 % of control

CN1CCN(Cc2nc3cccc4c3c([n+]2[O-])-c2ccccc2-4)CC1
inactive: dose: 12.5 mg/kg/injection, schedule: Q01DX009 (ip), vehicle: saline with Tween-80 101 % of control | dose: 25.0 mg/kg/injection, schedule: Q01DX009 (ip), vehicle: saline with Tween-80 105 % of control | dose: 50.0 mg/kg/injection, schedule: Q01DX009 (ip), vehicle: saline with Tween-80 103 % of control | [11] 114 % of control | [13] 123 % of control

O=C(OCCO)c1ccccc1O
inactive: dose: 75.0 mg/kg/injection, schedule: Q01DX009 (ip), vehicle: saline sonified 102 % of control | dose: 100.0 mg/kg/injection, schedule: Q04DX003 (ip), vehicle: saline 102 % of control | dose: 150.0 mg/kg/injection, schedule: Q01DX009 (ip), vehicle: saline sonified 116 % of control | dose: 200.0 mg/kg/injection, schedule: Q04DX003 (ip), vehicle: saline 98 % of control | dose: 300.0 mg/kg/injection, schedule: Q01DX009 (ip), vehicle: saline sonified 108 % of control | dose: 400.0 mg/kg/injection, schedule: Q04DX003 (ip), vehicle: saline 102 % of control

CCOP(=O)(OCC)OC(C)CC (stereo not given)
inactive: [7] 109 % of control | [8] 103 % of control | [9] 106 % of control

CN(C)c1ccc(N=C(C#N)C#N)cc1
inactive: dose: 75.0 mg/kg/injection, schedule: Q01DX001 (ip), vehicle: other 89 % of control | dose: 150.0 mg/kg/injection, schedule: Q01DX001 (ip), vehicle: other 95 % of control

C/C(=C\Cl)CN(C)S(=O)(=O)c1ccc(Br)cc1
inactive: dose: 100.0 mg/kg/injection, schedule: Q01DX001 (ip), vehicle: saline with Tween-80 100 % of control and 98 % of control | [4] 94 % of control | dose: 200.0 mg/kg/injection, schedule: Q01DX001 (ip), vehicle: saline with Tween-80 94 % of control and 95 % of control | [5] 89 % of control | dose: 400.0 mg/kg/injection, schedule: Q01DX001 (ip), vehicle: saline with Tween-80 96 % of control and 98 % of control
